Data reported in ChEMBL document CHEMBL1144165, “Cyclic diarylheptanoids from Myrica nana inhibiting nitric oxide release” (Bioorg Med Chem, 2008).
Active and inactive are the calls of the source. The rule behind the calls is not given here.

Assays:
[1] = test system: Macrophage; assay: Inhibition of LPS-stimulated nitric oxide production in BALB/c mouse macrophages at 1 uM after 20 hrs by Griess assay relative to control; type: functional
[2] = test system: Macrophage; assay: Inhibition of LPS-stimulated nitric oxide production in BALB/c mouse macrophages at 30 uM after 20 hrs by Griess assay relative to control; type: functional
[3] = test system: Macrophage; assay: Inhibition of LPS-stimulated nitric oxide production in BALB/c mouse macrophages at 3 uM after 20 hrs by Griess assay relative to control; type: functional
[4] = test system: Macrophage; assay: Inhibition of LPS-stimulated nitric oxide production in BALB/c mouse macrophages at 10 uM after 20 hrs by Griess assay relative to control; type: functional
[5] = test system: Macrophage; assay: Inhibition of LPS-stimulated nitric oxide production in BALB/c mouse macrophages at 100 uM after 20 hrs by Griess assay relative to control; type: functional
[6] = test system: Macrophage; assay: Inhibition of LPS-stimulated nitric oxide production in BALB/c mouse macrophages after 20 hrs by Griess assay relative to control; type: functional, cell-based
[7] = test system: Macrophage; assay: Inhibition of iNOS expression in LPS-activated BALB/c mouse macrophages at 1 to 100 uM after 12 hrs by SDS-PAGE; type: functional, cell-based

Structure (SMILES) | inhibition at 1 µM [1] | inhibition at 30 µM [2] | inhibition at 3 µM [3] | inhibition at 10 µM [4] | inhibition at 100 µM [5] | IC50 [6] | Activity [7]
COc1c2cc(c(O)c1OC)CCCCC(=O)C(OC)Cc1cc(O)c(O)c-2c1 (stereo unspecified) [MYRICANANIN E] | -3.27% | 29.8% | 9.22% | 15.3% | 49.2% | – | –
COC1=C(OC)C(=O)C2=C(CCCCC(O)CCc3ccc(O)c2c3)C1=O (stereo unspecified) [ACTINIDIONE] | 9.52% | 31.4% | 21.1% | 22.9% | 38.7% | – | –
COc1c2cc(c(O)c1OC)CCCCC(=O)/C=C\c1cc(O)c(O)c-2c1 [MYRICANANIN D] | 6.12% | 19.1% | 17.7% | 23.8% | 31.8% | – | –
O=C1CCc2ccc(O)c(c2)-c2cc(ccc2O)CCC(O)C1 (stereo unspecified) [ALNUSONOL] | -3.39% | 41.1% | 34.8% | 45.8% | 54.5% | 46.2 µM | –
COc1c2cc(c(O)c1OC)CCCCC(=O)C(O)Cc1ccc(O)c-2c1 (stereo unspecified) | 35.1% | 55.7% | 48.7% | 41.8% | 65.5% | 30.2 µM | –
COc1cc2cc(c1O)-c1cc(ccc1O)C[C@H](O)[C@@H](O)CCCC2 [MYRICANANIN A] | 0.84% | 50.8% | -0.13% | 36% | 84.4% | 45.3 µM | Active
COc1cc2cc(c1O)-c1cc(ccc1O)CCC(=O)CCCC2 [MYRICANANIN C] | 17.3% | 42.6% | 32.8% | 39.1% | 50.1% | 63.5 µM | –
COc1c2cc(c(O)c1OC)CCCC[C@@H]1OC(C)(C)O[C@H]1Cc1ccc(O)c-2c1 [MYRICANANIN B] | 17.3% | 49.7% | 32.8% | 39.2% | 55.8% | 52.8 µM | –
